SMILES strings stand for the structures.

The test system of the first test is U2OS_Bim cells. Kind of test: Apoptosis inhibition assay (Bim-induced apoptosis, cell viability by ATP level). It is filed as cell-based. To be noted: U2OS_Bim cells; estimated (*Est.) / preliminary results; numbering of Tables 4a/4b; read-out: EC50. The method in brief: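 Apoptosis was triggered by doxycycline (0.1 μg/mL) induction of Bim, one hour after compound addition to U2OS_Bim cells. Survival was measured after 24 h from cellular ATP (CellTiter-Glo), relative to DMSO, with zVAD at 20 μM as rescue control. Data are duplicate means, some estimated from preliminary results.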
The term EC50 denotes the concentration needed to bring the measured effect to its halfway point. For the molecule `Cc1cc(-c2cc(F)c(=O)n(Cc3ccc4c(c3)OCO4)c2)nc(S(=O)(=O)CCC(OCc2ccncc2)c2ccccc2)n1` (centres unmarked) [Compound 402], the EC50 is 1 to 1000 nM.

As to `Cc1cc(-c2cc(F)c(=O)n(Cc3ccc4c(c3)OCO4)c2)nc(S(=O)(=O)CCC(OCc2cccs2)c2ccccc2)n1` (centres unmarked) [Compound 405], the EC50 was 1 to 1000 nM.

As for `Cc1cc(-c2ccc(=O)n(Cc3ccc4nnn(C)c4c3)n2)nc(S(=O)(=O)CCC(OCc2ccccc2F)c2ccccc2)n1` (centres unmarked) [Compound 369], the EC50 is 1 to 1000 nM.

Turning to `Cc1cc(-c2cc(F)c(=O)n(Cc3ccc4c(c3)OCO4)c2)nc(S(=O)(=O)CCC(OCc2ccccc2F)c2ccccn2)n1` (centres unmarked) [Compound 383], the EC50 was 1 to 1000 nM.

Take `Cc1cc(-c2cc(F)c(=O)n(Cc3ccc4c(c3)OCO4)c2)nc(S(=O)(=O)CCC(OCC(C)(C)C)c2ccccc2)n1` (centres unmarked) [Compound 421]: the concentration giving a half-maximal response (EC50) was 1 to 1000 nM.

Consider `Cc1cc(-c2cc(F)c(=O)n(Cc3ccc4c(c3)OCO4)c2)nc(S(=O)(=O)CCC(OCc2ccco2)c2ccccc2)n1` (centres unmarked) [Compound 407], for which the half-maximal effective concentration (EC50) was 1 to 1000 nM.

On to `Cc1cc(-c2cc(F)c(=O)n(Cc3ccc4c(c3)OCO4)c2)nc(S(=O)(=O)CCCC(=O)N(C(C)(C)C)C(C)(C)C)n1` [Compound 382], for which the EC50 is 1 to 1000 nM.

As to `Cc1cc(-c2cc(F)c(=O)n(Cc3ccn4ccnc4c3)c2)nc(S(=O)(=O)CCC(OCc2ccccc2F)c2ccccc2)n1` (centres unmarked) [Compound 340], the EC50 is 1 to 1000 nM.

For the molecule `Cc1cc(-c2cc(F)c(=O)n(Cc3ccc4c(c3)OCO4)c2)nc(S(=O)(=O)CCCC(=O)NC23CC4CC(CC(C4)C2)C3)n1` [Compound 364], the EC50 is 1 to 1000 nM.

The test is the same for the next values; noted with them: U2OS_Bim cells; estimated based on preliminary results; numbering of Tables 4a/4b; read-out: EC50.
Regarding `COc1ccc(Cn2cc(-c3cc(-n4cccc4)nc(S(C)(=O)=O)n3)ccc2=O)cc1OC` [Compound 219], the half-maximal effective concentration (EC50) was less than 10000 nM.

As for `C[S+]([O-])c1nc(-c2ccc(=O)n(Cn3ccc4ccccc43)c2)cc(C(F)(F)F)n1` (centres unmarked) [Compound 257], the EC50 is less than 10000 nM.

For `COc1ccc(Cn2cc(-c3cc(-c4nccs4)nc(S(C)(=O)=O)n3)ccc2=O)cc1OC` [Compound 217], the EC50 was less than 10000 nM.

As to `COc1ccc(Cn2cc(-c3cc(-c4ccco4)nc(S(C)(=O)=O)n3)ccc2=O)cc1OC` [Compound 206], the EC50 was less than 10000 nM.

Take `CS(=O)(=O)c1nc(-c2ccc(=O)n(Cc3ccc4c(c3)OCCN4)c2)cc(C(F)(F)F)n1` [Compound 240]: the half-maximal effective concentration (EC50) is less than 10000 nM.

The test is the same for the next values; noted with them: U2OS_Bim cells; means of duplicates; numbering of Tables 4a/4b; read-out: EC50.
Consider `COc1ccc(Cn2cc(-c3cc(C(F)(F)F)nc(S(=O)(=O)CCC(=O)N(C)C)n3)ccc2=O)cc1OC` [Compound 149, 3-((4-(1-(3,4-dimethoxybenzyl)-6-oxo-1,6-dihydropyridin-3-yl)-6-(trifluoromethyl)pyrimidin-2-yl)sulfonyl)-N,N-dimethylpropanamide], for which the EC50 was in the range of 1 to 1000 nM.

For the molecule `Cc1cc(-c2cc(F)c(=O)n(Cc3ccc4nc[nH]c4c3)c2)nc(S(=O)(=O)CCC(OCc2ccccc2F)c2ccccc2)n1` (centres unmarked) [Compound 322, 1-((1H-benzo[d]imidazol-6-yl)methyl)-3-fluoro-5-(2-(3-(2-fluorobenzyloxy)-3-phenylpropylsulfonyl)-6-methylpyrimidin-4-yl)pyridin-2 (1H)-one], the EC50 lay in the range of 1 to 1000 nM.

`COc1ccc(Cn2cc(-c3nc(S(C)(=O)=O)nc(C(F)(F)F)c3Cl)ccc2=O)cc1OC` [Compound 162, 5-(5-chloro-2-(methylsulfonyl)-6-(trifluoromethyl)pyrimidin-4-yl)-1-(3,4-dimethoxybenzyl)pyridin-2 (1H)-one]: the EC50 is 1 to 1000 nM.

Take `CNS(=O)(=O)CCC[S+]([O-])c1nc(-c2ccc(=O)n(Cc3ccc(OC)c(OC)c3)c2)cc(C(F)F)n1` (centres unmarked) [Compound 179, 3-((4-(difluoromethyl)-6-(1-(3,4-dimethoxybenzyl)-6-oxo-1,6-dihydropyridin-3-yl)pyrimidin-2-yl)sulfinyl)-N-methylpropane-1-sulfonamide]: the half-maximal effective concentration (EC50) was less than 100000 nM.

In the case of `COc1ccc(Cn2cc(-c3cc(-c4cccs4)nc([S+]([O-])CCC(OCc4ccccc4)c4ccccc4)n3)ccc2=O)cc1OC` (centres unmarked) [Compound 299, 5-(2-((3-(benzyloxy)-3-phenylpropyl)sulfinyl)-6-(thiophen-2-yl)pyrimidin-4-yl)-1-(3,4-dimethoxybenzyl)pyridin-2 (1H)-one], the concentration giving a half-maximal response (EC50) was less than 100000 nM.

For `Cc1cc(-c2cc(F)c(=O)n(Cc3ccc4c(c3)OCO4)c2)nc(S(=O)(=O)CCC(Oc2cccnc2)c2ccccc2)n1` (centres unmarked) [Compound 333, 1-(benzo[d][1,3]dioxol-5-ylmethyl)-3-fluoro-5-(6-methyl-2-((3-phenyl-3-(pyridin-3-yloxy)propyl)sulfonyl)pyrimidin-4-yl)pyridin-2 (1H)-one], the EC50 fell in the range of 1 to 1000 nM.

As for `COc1ccc(Cn2cc(-c3cc(C(F)(F)F)nc(S(=O)(=O)CCC(OCc4ccccc4)c4ccccc4)n3)ccc2=O)cc1OC` (centres unmarked) [Compound 281, 5-(2-((3-(benzyloxy)-3-phenylpropyl)sulfonyl)-6-(trifluoromethyl)pyrimidin-4-yl)-1-(3,4-dimethoxybenzyl)pyridin-2 (1H)-one], the EC50 was 1 to 1000 nM.

Consider `CCCCCCCS(=O)(=O)c1nc(-c2ccc(=O)n(Cc3ccc(OC)c(OC)c3)c2)cc(C(F)(F)F)n1` [Compound 146, 1-(3,4-dimethoxybenzyl)-5-(2-(heptylsulfonyl)-6-(trifluoromethyl)pyrimidin-4-yl)pyridin-2 (1H)-one], for which the half-maximal effective concentration (EC50) was 1 to 1000 nM.

In the case of `CS(=O)(=O)c1nc(-c2ccc(=O)[nH]c2)cc(C(F)(F)F)n1` [Compound 99, 5-(2-(methylsulfonyl)-6-(trifluoromethyl)pyrimidin-4-yl)pyridin-2 (1H)-one], the EC50 was less than 100000 nM.

For the molecule `COc1ccc(Cn2cc(-c3cc(-c4ccccc4F)nc(S(C)(=O)=O)n3)ccc2=O)cc1OC` [Compound 296, 1-(3,4-dimethoxybenzyl)-5-(6-(2-fluorophenyl)-2-(methylsulfonyl)pyrimidin-4-yl)pyridin-2 (1H)-one], the concentration for a half-maximal effect (EC50) lay within 1000 to 10000 nM.

Consider `[O-][S+](CCC(OCc1ccccc1)c1ccccc1)c1nc(-c2cccs2)cc(C(F)(F)F)n1` (centres unmarked) [Compound 290, 2-(3-(benzyloxy)-3-phenylpropylsulfinyl)-4-(thiophen-2-yl)-6-(trifluoromethyl)pyrimidine], for which the EC50 lay within 1000 to 10000 nM.

Consider `COc1ccc(-c2cc(C(F)(F)F)nc([S+](C)[O-])n2)cc1` (centres unmarked) [Compound 54, 4-(4-methoxyphenyl)-2-(methylsulfinyl)-6-(trifluoromethyl)pyrimidine], for which the concentration for a half-maximal effect (EC50) is 1000 to 20000 nM.

In the case of `COc1ccccc1-c1cc(C(F)(F)F)nc(S(C)(=O)=O)n1` [Compound 51, 4-(2-methoxyphenyl)-2-(methylsulfonyl)-6-(trifluoromethyl)pyrimidine], the concentration for a half-maximal effect (EC50) was 1000 to 10000 nM.

With `COc1cccc(S(=O)(=O)c2nc(-c3ccc(=O)n(Cc4ccc(OC)c(OC)c4)c3)cc(C(F)F)n2)c1` [Compound 174, 5-(6-(difluoromethyl)-2-((3-methoxyphenyl)sulfonyl)pyrimidin-4-yl)-1-(3,4-dimethoxybenzyl)pyridin-2 (1H)-one], the EC50 lay within 1 to 1000 nM.

For the molecule `CS(=O)(=O)c1nc(-c2cccc(C#N)c2)cc(C(F)(F)F)n1` [Compound 56, 3-(2-(methylsulfonyl)-6-(trifluoromethyl)pyrimidin-4-yl)benzonitrile], the EC50 fell in the range of 1000 to 20000 nM.

Turning to `COc1ccc(Cn2cc(-c3cc(C(F)F)nc([S+](C)[O-])n3)ccc2=O)cc1C(F)(F)F` (centres unmarked) [Compound 170, 5-(6-(difluoromethyl)-2-(methylsulfinyl)pyrimidin-4-yl)-1-(4-methoxy-3-(trifluoromethyl)benzyl)pyridin-2 (1H)-one], the EC50 lay in the range of 1 to 1000 nM.

In the case of `C[S+]([O-])c1nc(-c2ccc[nH]c2=O)cc(C(F)(F)F)n1` (centres unmarked) [Compound 81, 3-(2-(methylsulfinyl)-6-(trifluoromethyl)pyrimidin-4-yl)pyridin-2 (1H)-one], the 50% effective concentration (EC50) was less than 100000 nM.

As for `CS(=O)(=O)c1nc(-c2ccc(=O)n(Cc3ccc(N=[N+]=[N-])cc3)c2)cc(C(F)(F)F)n1` [Compound 123, 1-(4-azidobenzyl)-5-(2-(methylsulfonyl)-6-(trifluoromethyl)pyrimidin-4-yl)pyridin-2 (1H)-one], the half-maximal effective concentration (EC50) is less than 100000 nM.

For the molecule `COc1cc(Cl)c(Cn2cc(-c3cc(C(F)(F)F)nc(S(=O)(=O)CCC(=O)N4CCCCC4)n3)ccc2=O)cc1OC` [Compound 154, 1-(2-chloro-4,5-dimethoxybenzyl)-5-(2-((3-oxo-3-(piperidin-1-yl)propyl)sulfonyl)-6-(trifluoromethyl)pyrimidin-4-yl)pyridin-2 (1H)-one], the EC50 lay in the range of 1 to 1000 nM.

For the molecule `C[S+]([O-])c1nc(N2CCOCC2)cc(C(F)(F)F)n1` (centres unmarked) [Compound 82, 4-(2-(methylsulfinyl)-6-(trifluoromethyl)pyrimidin-4-yl)morpholine], the EC50 is less than 100000 nM.

Consider `CNS(=O)(=O)CCCS(=O)(=O)c1nc(-c2ccc(=O)n(Cc3ccc(OC)c(OC)c3)c2)cc(C(F)F)n1` [Compound 178, 3-((4-(difluoromethyl)-6-(1-(3,4-dimethoxybenzyl)-6-oxo-1,6-dihydropyridin-3-yl)pyrimidin-2-yl)sulfonyl)-N-methylpropane-1-sulfonamide], for which the EC50 fell in the range of 1 to 1000 nM.

On to `Cc1cccc(-c2cc(C(F)(F)F)nc(S(C)(=O)=O)n2)c1` [Compound 47, 2-(methylsulfonyl)-4-(m-tolyl)-6-(trifluoromethyl)pyrimidine], for which the half-maximal effective concentration (EC50) was in the range of 1000 to 10000 nM.

Turning to `C[S+]([O-])c1nc(-c2cc[nH]c2)cc(C(F)(F)F)n1` (centres unmarked) [Compound 88, 2-(methylsulfinyl)-4-(1H-pyrrol-3-yl)-6-(trifluoromethyl)pyrimidine], the 50% effective concentration (EC50) is less than 100000 nM.

As for `C[S+]([O-])c1nc(-c2ccc(=O)n(Cc3ccc(Cl)cc3F)c2)cc(C(F)(F)F)n1` (centres unmarked) [Compound 125, 1-(4-chloro-2-fluorobenzyl)-5-(2-(methylsulfinyl)-6-(trifluoromethyl)pyrimidin-4-yl)pyridin-2 (1H)-one], the half-maximal effective concentration (EC50) was 1000 to 10000 nM.

(Values after patent US11725000B2, “Apoptosis inhibitors” (National Institute of Biological Sciences, Beijing, priority 2017, dated 2023).)
